Assay: xn = mol fraction of the nth substance listed
Conditions: Liquid, Vibrating tube method

CC(C)=O [acetone] + CCCCCCC
Conditions	mass density [kg/m3]
357.55 K, 24990 kPa, x1 = 0.4	726.84
357.55 K, 24990 kPa, x1 = 0.8992	726.84
357.55 K, 29870 kPa, x1 = 0.492	686.24
357.55 K, 29870 kPa, x1 = 0.611	695.58
357.55 K, 29970 kPa, x1 = 0.4	732.49
357.55 K, 29970 kPa, x1 = 0.8992	732.49
357.55 K, 34840 kPa, x1 = 0.492	691.34
357.55 K, 34860 kPa, x1 = 0.611	700.78
357.55 K, 34960 kPa, x1 = 0.4	737.79
357.55 K, 34960 kPa, x1 = 0.8992	737.79
357.55 K, 39860 kPa, x1 = 0.492	696.15
357.55 K, 39860 kPa, x1 = 0.611	705.69
357.55 K, 39960 kPa, x1 = 0.4	742.81
357.55 K, 39960 kPa, x1 = 0.8992	742.81
357.55 K, 44840 kPa, x1 = 0.492	700.71
357.55 K, 44850 kPa, x1 = 0.611	710.3
357.55 K, 44950 kPa, x1 = 0.4	747.57
357.55 K, 44950 kPa, x1 = 0.8992	747.57
357.55 K, 49840 kPa, x1 = 0.611	714.7
357.55 K, 49940 kPa, x1 = 0.4	752.09
357.55 K, 49940 kPa, x1 = 0.8992	752.09
357.55 K, 54850 kPa, x1 = 0.492	709.15
357.55 K, 54940 kPa, x1 = 0.4	756.43
357.55 K, 54940 kPa, x1 = 0.611	718.97
357.55 K, 54940 kPa, x1 = 0.8992	756.43
357.55 K, 59860 kPa, x1 = 0.492	713.06
357.55 K, 59930 kPa, x1 = 0.4	760.56
357.55 K, 59930 kPa, x1 = 0.611	722.96
357.55 K, 59930 kPa, x1 = 0.8992	760.56
357.55 K, 64830 kPa, x1 = 0.492	716.77
357.55 K, 64890 kPa, x1 = 0.4	764.53
357.55 K, 64890 kPa, x1 = 0.8992	764.53
357.55 K, 69890 kPa, x1 = 0.4	768.36
357.55 K, 69890 kPa, x1 = 0.8992	768.36
357.55 K, 69910 kPa, x1 = 0.611	730.41
357.55 K, 69930 kPa, x1 = 0.492	720.43
357.55 K, 74860 kPa, x1 = 0.4	772.01
357.55 K, 74860 kPa, x1 = 0.8992	772.01
357.55 K, 74890 kPa, x1 = 0.611	733.9
357.55 K, 74910 kPa, x1 = 0.492	723.89
357.55 K, 79780 kPa, x1 = 0.7024	747.09
357.55 K, 79880 kPa, x1 = 0.611	737.26
357.55 K, 84830 kPa, x1 = 0.4	778.99
357.55 K, 84830 kPa, x1 = 0.8992	778.99
357.55 K, 89740 kPa, x1 = 0.7024	753.59
357.55 K, 89810 kPa, x1 = 0.4	782.3
357.55 K, 89810 kPa, x1 = 0.8992	782.3
357.55 K, 89830 kPa, x1 = 0.611	743.64
357.55 K, 94820 kPa, x1 = 0.611	746.67
357.55 K, 94860 kPa, x1 = 0.492	736.47
357.55 K, 99800 kPa, x1 = 0.611	749.61
357.55 K, 99820 kPa, x1 = 0.7024	759.74
357.55 K, 104700 kPa, x1 = 0.4	791.65
357.55 K, 104700 kPa, x1 = 0.8992	791.65
357.55 K, 104820 kPa, x1 = 0.7024	762.65
357.55 K, 109810 kPa, x1 = 0.7024	765.49
357.55 K, 114810 kPa, x1 = 0.7024	768.22
357.55 K, 119810 kPa, x1 = 0.7024	770.9
357.55 K, 124810 kPa, x1 = 0.7024	773.52
357.55 K, 129800 kPa, x1 = 0.7024	776.06
357.56 K, 1060 kPa, x1 = 0.801	677.14
357.56 K, 4870 kPa, x1 = 0.801	683.82
357.56 K, 9840 kPa, x1 = 0.801	691.71
357.56 K, 14860 kPa, x1 = 0.801	698.89
357.56 K, 34850 kPa, x1 = 0.801	722.54
357.56 K, 49850 kPa, x1 = 0.492	705.01
357.56 K, 59820 kPa, x1 = 0.801	745.17
357.56 K, 64910 kPa, x1 = 0.611	726.75
357.56 K, 64920 kPa, x1 = 0.801	749.17
357.56 K, 69910 kPa, x1 = 0.801	752.93
357.56 K, 74880 kPa, x1 = 0.801	756.52
357.56 K, 79850 kPa, x1 = 0.4	775.55
357.56 K, 79850 kPa, x1 = 0.8992	775.55
357.56 K, 79900 kPa, x1 = 0.492	727.2
357.56 K, 84860 kPa, x1 = 0.611	740.5
357.56 K, 84870 kPa, x1 = 0.801	763.37
357.56 K, 84890 kPa, x1 = 0.492	730.4
357.56 K, 89840 kPa, x1 = 0.801	766.6
357.56 K, 89880 kPa, x1 = 0.492	733.49
357.56 K, 94780 kPa, x1 = 0.4	785.51
357.56 K, 94780 kPa, x1 = 0.8992	785.51
357.56 K, 94830 kPa, x1 = 0.801	769.76
357.56 K, 99750 kPa, x1 = 0.4	788.61
357.56 K, 99750 kPa, x1 = 0.8992	788.61
357.56 K, 99810 kPa, x1 = 0.801	772.8
357.56 K, 99830 kPa, x1 = 0.492	739.34
357.56 K, 104780 kPa, x1 = 0.611	752.46
357.56 K, 104780 kPa, x1 = 0.801	775.76
357.56 K, 104810 kPa, x1 = 0.492	742.14
357.56 K, 109680 kPa, x1 = 0.4	794.58
357.56 K, 109680 kPa, x1 = 0.8992	794.58

— the NIST ThermoML archive (doi:10.1016/j.fluid.2010.10.028)
